Source: patent US6972319B1, “Pituitary adenylate cyclase activating peptide (PACAP)receptor 3 (R3) agonists and their pharmacological methods of use” (priority 1999, dated 2005)
Where two headings read alike, the source gives them in different places. No end group written: not given here.

Tests used:
[1] = Peptide-induced elevation of plasma insulin after IVGTT in rats; type: in vivo; conditions: one minute after IVGTT (0.4 g/kg glucose), Wistar rats
Protocol: Wistar rats are fasted overnight (17 hrs) and then anesthetized with pentobarbital (0.1 ml/100 g BW). Glucose (0.4 g/kg dissolved in 1% human albumin-saline)+/−peptide (dissolved in 1% human albumin-saline) is injected intravenously into the tail vein. The rats are eye-bled 1 minute after the injection and 50-100 ul of the plasma are assayed for insulin level with the Linco RIA kit (Linco Research, Inc., St. Charles, Mo.).
In accordance with the protocol of example 2 above, overnight fasted Wistar rats were anesthetized with pentobarital; i.v. injected with glucose±peptide and eye bled after 1 minute. N=12 rats/group. […] The peptide or vehicle was given i.v. followed by a glucose load given i.p. in accordance with example 3. The plasma glucose was followed over the time period indicated.
Plasma insulin: Data are expressed as % of plasma insulin one minute after IVGTT (0.4 g/kg glucose) with either saline, 0.1 nmol/kg P51, P55, P60, P66 or 1 nmole/kg of the other peptides in Wistar rats. Blood was drawn from the eye and insulin was measured with the rat insulin RIA kit (Linco Research, Inc., St. Charles, Mo.).

rat islets = assay: Insulin secretion by isolated rat islets; type: cell-based, Sprague-Dawley rats; conditions: for Islet Insulin Release (% of Basal): 10 nM peptide, 2 hrs, 8 mM glucose, % of [insulin] in 8 mM glucose alone
Protocol: Sprague Dawley rats (275-320 g) were used as the source of donor islets. Briefly, the pancreas was filled with 10 ml of cold reconstituted Liberase RI (Boehringer Manheim), harvested and incubated with additional 5 ml enzyme solution in water bath for 30 minutes. Tissue suspension was washed twice with cold 10% FBS/Hanks buffer (Gibco), resuspended in 8 ml 25% ficoll (Sigma) and then layered with 5 ml each of 23%, 20% and 11% ficoll. The islets in the 20% layer after centrifugation were removed, washed twice with cold 10% FBS/Hank buffer and resuspended in 10% FBS/RPMI 1640 media (Sigma).
Islet insulin release: Rat islets were isolated from Sprague-Dawley rats as described in example 1 and treated with either vehicle or specified peptide (10 nM) for 2 hrs. Insulin concentration in the medium was measured with the Linco rat insulin RIA kit. Glucose concentration in the medium was 8 mM. The data are expressed as % of [insulin] in 8 mM glucose alone.

PACAP-R3 = target: T1, PACAP-R3 (Homo sapiens, UniProt P41587); assay: Cyclic AMP SPA on CHO cells expressing PACAP R3; type: cell-based; parameters: expressed in transfected cells; host or cells: CHO cells (Geneticin selection); conditions: for R3 Selectivity: ratio of EC50 at R2 versus EC50 at R3
T1 sequence (P41587 24-438): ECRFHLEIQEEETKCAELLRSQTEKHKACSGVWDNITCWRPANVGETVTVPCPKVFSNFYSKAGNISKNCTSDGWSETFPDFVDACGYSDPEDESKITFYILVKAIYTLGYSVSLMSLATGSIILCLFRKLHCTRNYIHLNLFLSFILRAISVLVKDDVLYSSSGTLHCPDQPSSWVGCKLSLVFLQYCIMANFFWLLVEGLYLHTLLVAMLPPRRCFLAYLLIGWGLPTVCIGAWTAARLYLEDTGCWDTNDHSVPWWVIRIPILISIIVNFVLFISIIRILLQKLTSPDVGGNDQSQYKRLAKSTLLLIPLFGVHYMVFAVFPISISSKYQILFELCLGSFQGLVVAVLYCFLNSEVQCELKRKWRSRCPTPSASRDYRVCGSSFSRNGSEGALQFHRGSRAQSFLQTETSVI
How it was run: (§1)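 Intracellular cAMP, quantified by scintillation proximity assay, was measured after a 15-min, 37 °C peptide incubation containing IBMX (100 μM), bacitracin and soybean trypsin inhibitor. The cells were CHO transfected with PACAP-R2 or -R3. EC50 is set against maximal PACAP27 response.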

PACAP-R2 = target: T2, PACAP-R2 (Homo sapiens, UniProt P32241); assay: Cyclic AMP SPA on CHO cells transfected with PACAP-R2; type: cell-based; conditions: concentration at which 50% of maximum PACAP27 activity is achieved, NA = no detectable activities
T2 construct: expressed in transfected cells; host or cells: CHO cells
T2 sequence (P32241 31-457): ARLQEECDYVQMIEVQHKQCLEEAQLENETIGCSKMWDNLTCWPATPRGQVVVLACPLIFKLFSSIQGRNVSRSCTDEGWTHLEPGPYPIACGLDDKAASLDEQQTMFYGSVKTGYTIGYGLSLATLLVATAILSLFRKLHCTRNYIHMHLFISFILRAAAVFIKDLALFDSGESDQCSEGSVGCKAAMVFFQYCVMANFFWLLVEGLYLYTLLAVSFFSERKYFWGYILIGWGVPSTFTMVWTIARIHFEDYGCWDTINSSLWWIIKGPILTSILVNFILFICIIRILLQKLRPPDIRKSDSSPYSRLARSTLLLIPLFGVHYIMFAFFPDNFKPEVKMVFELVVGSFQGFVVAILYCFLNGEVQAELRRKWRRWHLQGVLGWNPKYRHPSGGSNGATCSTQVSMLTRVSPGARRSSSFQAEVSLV
How it was run: as §1

[2] = Intraperitoneal glucose tolerance test (IPGTT), plasma glucose in rats; type: in vivo, Wistar rats; conditions: for Plasma Glucose (% of Basal) s.c.: plasma glucose after IPGTT (1 g/kg glucose), 1 nmol/kg peptide s.c.; for Plasma Glucose (% of Basal) s.c. / Plasma Glucose (% of Basal) i.v.: % of vehicle; for Plasma Glucose (% of Basal) i.v.: plasma glucose area under the curve after IPGTT (1 g/kg glucose), 1 nmol/kg peptide i.v.; for elevation of plasma glucose 30 minutes after IPGTT: 1 nmole/kg s.c., rats, FIG. 7
Protocol: Wistar rats are fasted overnight and then anesthetized with pentobarbital. The rats were eye-bled (zero time) and the peptide (in 1% human albumin) was injected into the tail vein. Five minutes later, 1 g/kg of glucose (in saline) was injected intraperitoneally, and the rats were eye-bled after 15, 30 and 60 minutes. Plasma glucose levels were determined using the Technicon Axon autoanalyzer, Bayer Diagnosics division of Bayer Corporation, Tarrytown N.Y., operated using Method No. SM4-2143F90“Glucose”.
Wistar rats were fasted overnight and then anesthetized with Pentobarbital. The rats were eye-bled (zero time) and the peptide (in 1% human albumin) was injected subcutaneously. Five minutes later, 1 g/kg of glucose (in saline) was injected intraperitoneally, and the rats were eye-bled after 30 minutes.
Plasma glucose: Data are expressed as % of vehicle of plasma glucose area under the curve after IPGTT (1 g/kg glucose) after treatment with 1 nmol/kg dose of the peptide. […] The present inventors have shown for the first time that this is because the effects of R2 and R3 on glucose tend to cancel each other out. […] Therefore, R3-selectivity appears to be a desirable attribute for medicaments which are to be employed in achieving blood glucose reduction, for treatment of type 2 diabetes.

[3] = cAMP SPA, CHO cells transfected with PACAP-R3, concentration at which 50% of maximum PACAP27 activity is achieved, NA = no detectable activities, read-out: R3 EC50

| Compound | Plasma Insulin (% of Basal) ([1]; 1 nmole/kg peptide i.v.) [%] | Islet Insulin Release (% of Basal) (rat islets) [%] | EC50 (PACAP-R3; [3]) [nM] | R3 Selectivity (PACAP-R3) | EC50 (PACAP-R2; cAMP SPA, read-out: R2 EC50) [nM] | Plasma Glucose (% of Basal) s.c. [2] [%] | Plasma Glucose (% of Basal) i.v. [2] [%] | Plasma Insulin (% of Basal) ([1]; 0.1 nmol/kg peptide i.v.) [%] | elevation of plasma glucose 30 minutes after IPGTT [2] | EC50 (PACAP-R3) [nM] | EC50 (PACAP-R2; R2 EC50, cAMP SPA) [nM] | disposal of blood glucose ([2]; peptide i.v. followed by glucose load i.p., FIG. 5) | release of insulin from isolated rat islets (rat islets; 0.1-100 nM, 3 or 8 mM glucose, FIGS. 4A-4B) |
| --- | --- | --- | --- | --- | --- | --- | --- | --- | --- | --- | --- | --- | --- |
| PACAP 27: 27-amino acid form of pituitary adenylate cyclase activating peptide with an amidated carboxyl terminus [reference compound] | 320 | 186 |  |  |  |  |  |  |  |  |  |  |  |
| HSDAVFTDNYTRLRKQVAVKKYLQSIKKK [Peptide R3P81] | 302 |  | 0.5 | 100 | 50 |  |  |  |  |  |  |  |  |
| HSDAVFTDNYTRLRKQLAAKKYLNDIKKKRY [Peptide R3P36] | 255 |  | 0.4 | >200 | > 90 | 78 | 73 |  |  |  |  |  |  |
| HSDAVFTDNYTRLRKQMAAKKYLNSIKK [Peptide R3P51] |  |  | 0.26 | 90 | 23 |  |  | 259 |  |  |  |  |  |
| HSDAVFTDNYTRLRKQVAAKKYLQSIKKKR [Peptide R3P77] | 388 |  | 0.4 | 500 | 200 |  |  |  |  |  |  |  |  |
| HSDAVFTDNYTRLRKQVAAKKYLQSIKNKRY [Peptide R3P66] |  | 184 | 0.4 | 250 | 100 | 82 |  | 388 |  |  |  |  |  |
| H-HSDAVFTDNYTRLRKQMAAKKYLNSIKNKRY [Peptide R3P55] |  |  | 0.17 | 280 | 50 |  |  | 208 |  |  |  |  |  |
| HSDAVFTDNYTRLRKQMAVKKYLNSIKKGGT [Peptide R3P9] |  | 221 | 2 | 20 | 40 |  |  |  |  |  |  |  |  |
| CC[C@H](C)[C@H](NC(=O)[C@H](CO)NC(=O)[C@H](CCC(N)=O)NC(=O)[C@H](CC(C)C)NC(=O)[C@H](Cc1ccc(O)cc1)NC(=O)[C@H](CCCCN)NC(=O)[C@H](CCCCN)NC(=O)[C@@H](NC(=O)[C@H](C)NC(=O)[C@@H](NC(=O)[C@H](CCC(N)=O)NC(=O)[C@H](CCCCN)NC(=O)[C@H](CCCNC(=N)N)NC(=O)[C@H](CC(C)C)NC(=O)[C@H](CCCNC(=N)N)NC(=O)[C@@H](NC(=O)[C@H](Cc1ccc(O)cc1)NC(=O)[C@H](CC(N)=O)NC(=O)[C@H](CC(=O)O)NC(=O)[C@@H](NC(=O)[C@H](Cc1ccccc1)NC(=O)[C@@H](NC(=O)[C@H](C)NC(=O)[C@H](CC(=O)O)NC(=O)[C@H](CO)NC(=O)[C@@H](N)Cc1c[nH]cn1)C(C)C)[C@@H](C)O)[C@@H](C)O)C(C)C)C(C)C)C(=O)N[C@@H](CCCCN)C(=O)N[C@@H](CCCCN)C(=O)N[C@@H](CCCCN)C(=O)N[C@@H](CCCNC(=N)N)C(=O)O [Peptide R3P80] | 360 |  | 0.44 |  |  |  |  |  |  |  |  |  |  |
| HSDAVFTDNYTRLRKQLAAKKYLNDIKKGGT [Peptide R3P12] | 302 | 324 | 0.5 | >200 | > 100 | 76 |  |  | significantly reduced |  |  |  |  |
| HSDAVFTDNYTRLRKQVAAKKYLQSIKK [Peptide R3P60] |  |  | 1 | 120 | 120 |  |  | 283 |  |  |  |  |  |
| HSDAVFTENYTKLRKQLAAKKYLNDLKKGGT [Peptide R3P3] | 361 | 275 |  | 130 |  | 72 | 77 |  | significantly reduced | 0.75 | 100 | markedly accelerated the disposal of blood glucose | significantly enhances the release of insulin |
| HSDAVFTDNYTRLRKQLAAKKYLNDIKK-NH2 [Peptide R3P13] |  |  | 5 | 33 | 163 |  |  |  | significantly reduced |  |  |  |  |
| HSDAVFTENYTKLRKQLAAKKYLNDLLNGGT [Peptide R3P10] |  | 174 | 11 | 0.3 | 3 |  |  |  |  |  |  |  |  |
